# Values quoted from earlier work, collected in patent US10543503B1, “Methods of delivery of encapsulated perfluorocarbon taggants” (Copilot Ventures Fund III LLC, priority 2011, dated 2020).
# Key:
# aldrin-epoxidase = details: rats, following PFD treatment
# [1] = system: cytochrome P-450 IA1 and IA1; details: rats, following PFD treatment; enzymes induced by 3-methylcholanthrene-type inducers
# [2] = system: cytochrome P-450 IIA1 and IIA2 (a.k.a. cytochrome P450b and cytochrome P450e); details: rats, following PFD treatment
# cytochrome P450 IV = details: rats, following PFD treatment; enzyme induced by fatty acids and perfluoronated fatty acids
# [3] = system: benzphetamine-N-demethylase; details: rats, following PFD treatment
# cytochrome P-450 = details: PFD given to rats; hepatic metabolizing enzymes
structure (smiles),measurement,setting,value
"FC1(F)C(F)(F)C(F)(F)C2(F)C(F)(F)C(F)(F)C(F)(F)C(F)(F)C2(F)C1(F)F (stereo not drawn) [PFD, perfluorodecalin]",activity of aldrin-epoxidase,aldrin-epoxidase,increased
same,activities of cytochrome P-450 IA1 and IA1,[1],unaffected
same,increase of activities of cytochrome P-450 IIA1 and IIA2,[2],approximately two-fold
same,activity of cytochrome P450 IV,cytochrome P450 IV,unaffected
same,activity of benzphetamine-N-demethylase,[3],increased
same,induction of cytochrome P-450,cytochrome P-450,induce cytochrome P-450 in a manner similar to phenobarbital
